One assay concerns the target T1, CCK receptor (pancreas) (Rattus norvegicus, UniProt P30551).
T1 construct: The whole pancreas was dissected free of fat tissue and was homogenized; from tissue; host or cells: rat pancreas membranes (Sprague-Dawley)
T1 sequence (P30551 1-444): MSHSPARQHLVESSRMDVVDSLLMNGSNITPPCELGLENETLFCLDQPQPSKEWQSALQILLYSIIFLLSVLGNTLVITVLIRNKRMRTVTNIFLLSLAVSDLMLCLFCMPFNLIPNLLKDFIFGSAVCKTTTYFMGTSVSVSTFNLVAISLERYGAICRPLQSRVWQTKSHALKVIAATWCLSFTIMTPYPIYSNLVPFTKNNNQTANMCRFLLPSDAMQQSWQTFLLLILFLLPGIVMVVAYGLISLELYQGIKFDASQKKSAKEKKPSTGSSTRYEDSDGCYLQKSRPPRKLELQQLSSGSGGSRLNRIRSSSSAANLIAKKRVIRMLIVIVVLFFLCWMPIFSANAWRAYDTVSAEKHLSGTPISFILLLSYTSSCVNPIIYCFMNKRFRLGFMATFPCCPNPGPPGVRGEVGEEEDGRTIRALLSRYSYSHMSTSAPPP
Put plainly: CCK Receptor Binding (Pancreas): inhibition of ^125 I-CCK-33 binding. Further details: species or system Male Sprague-Dawley rats. The settings on record: rat pancreas membranes, ^125 I-CCK-33, 37° C., 30 minutes. As for the experimental part:
1. CCK Receptor Binding (Pancreas)
CCK-33 was radiolabeled with ^125 I-Bolton Hunter reagent (2000 Ci/mmole) as described by Sankara et al. (J. Biol. Chem. 254: 9349-9351, 1979). Receptor binding was performed according to Innis and Snyder (Proc. Natl. Acad. Sci. 77: 6917-6921, 1980) with the minor modification of adding the additional protease inhibitors, phenylmethane sulfonyl fluoride and o-phenanthroline.
Male Sprague-Dawley rats (200-350 g) were sacrificed by decapitation. The whole pancreas was dissected free of fat tissue and was homogenized in 20 volumes of ice-cold 50 mM, Tris HCl (pH 7.7 at 25° C.) with a Brinkmann Polytron PT 10. The homogenates were centrifuged at 48,000 g for 10 min. Pellets were resuspended in Tris Buffer, centrifuged as above and resuspended in 200 volumes of binding assay buffer (50 mM Tris HCl, pH 7.7 at 25° C., 5 mM dithiothrietol, 0.1 mM bacitracin, 1.2 mM phenylmethane sulfonyl fluoride and 0.5 mM o-phenanthroline). […] All assays were run in duplicate or triplicate. The reaction mixtures were incubated at 37° C. for 30 minutes and centrifuged in a Beckman Microfuge (4 minutes) immediately after adding 1 ml of ice-cold incubation buffer. The supernatant was aspirated and discarded, pellets were counted with a Beckman gamma 5000. For Scatchard analysis (Ann. N.Y. Acad. Sci. 51: 660, 1949), ^125 I-CCK-33 was progressively diluted with increasing concentrations of CCK-33.

For assay [1], the target named is T2, Gastrin receptor (gastric glands) (Cavia porcellus, UniProt H0VZC5).
T2 construct: The washed guinea pig gastric glands prepared as above were resuspended; from tissue; host or cells: guinea pig gastric mucosal glands (male Hartley)
T2 sequence (H0VZC5 1-426): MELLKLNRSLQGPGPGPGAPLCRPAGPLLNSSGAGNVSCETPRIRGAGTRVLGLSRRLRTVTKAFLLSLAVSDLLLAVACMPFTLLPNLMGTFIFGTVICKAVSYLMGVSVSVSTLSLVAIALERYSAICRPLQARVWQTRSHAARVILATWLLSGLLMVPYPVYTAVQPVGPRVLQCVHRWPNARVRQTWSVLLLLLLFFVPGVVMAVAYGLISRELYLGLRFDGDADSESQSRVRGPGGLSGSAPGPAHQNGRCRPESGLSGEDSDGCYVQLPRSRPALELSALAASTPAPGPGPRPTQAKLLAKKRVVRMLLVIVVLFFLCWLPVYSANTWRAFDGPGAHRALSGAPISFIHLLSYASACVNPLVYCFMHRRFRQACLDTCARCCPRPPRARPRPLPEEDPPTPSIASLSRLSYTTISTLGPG
Put plainly: Gastrin Receptor Binding in Guinea Pig Gastric Glands. Also noted: species or system guinea pig (male Hartley). The settings on record: 25° C., 30 minutes.

Assay [2] deals with T3, CCK receptor (brain, cerebral cortex) (Cavia porcellus, UniProt H0VZC5).
T3 construct: Cerebral cortex was dissected and used as a receptor source; from tissue; host or cells: guinea pig cerebral cortex membranes (male Hartley)
T3 sequence (H0VZC5 1-426): T2 sequence (H0VZC5 1-426)
Put plainly: biochemical. The class given is binding, Male Hartley guinea pigs. The settings on record: guinea pig cerebral cortex, ^125 I-CCK-33, 25° C., 2 hours. In a few lines: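 Binding of [radiolabeled] CCK-33 measured by gamma counting of centrifuged pellets after 2 h at 25°C. Membranes came from guinea pig brain cortex, suspended in 10 mM HEPES, 5 mM MgCl2, 1 mM EGTA, 0.25 mg/ml bacitracin, 0.4% BSA.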

[3] abbreviates: IC50 ^125 I-Gastrin Gastric Glands.
[4] abbreviates: ^125 I-gastrin, read-out: IC50 ^125 I-Gastrin Gastric Glands.
Setting [5] is: read-out: IC50 ^125 I-CCK Brain.

The structures appear in SMILES notation. Where two headings read alike, the source gives them in different places.

The term IC50 denotes the point on the concentration scale where inhibition reaches its midpoint. The compound `CCCCCN1C(=O)[C@@H](Cc2c[nH]c3ccccc23)N=C(c2ccccc2F)c2ccccc21` [Example 38, 1,3-Dihydro-5-(2-fluorophenyl)-3(R)-(3'-indolyl) methyl-1-pentyl-2H-1,4-benzodiazepin-2-one] gave an IC50 at CCK receptor (pancreas) (IC50 ^125 I-CCK Pancreas) of 100 µM.

For `CC1=N[C@H](Cc2c[nH]c3ccccc23)C(=O)Nc2ccccc21` [Example 29, 1,3-Dihydro-3(R)-(3'-indolyl)methyl-5-methyl-2H-1,4-benzodiazepin-2-one], at CCK receptor (pancreas) (read-out: IC50 ^125 I-CCK Pancreas), the IC50 was 48 µM.

Turning to `CN1C(=O)[C@@H](Cc2cn(C)c3ccccc23)N=C(c2ccccc2F)c2ccccc21` [4a & 44], the IC50 at CCK receptor (pancreas) (IC50 ^125 I-CCK Pancreas) was determined as 0.36 µM.

At CCK receptor (pancreas) (IC50 ^125 I-CCK Pancreas), `O=C1Nc2ccccc2C(c2ccccc2F)=NC1Cc1c[nH]c2ccc(F)cc12` (racemic) [Example 59, 1,3-Dihydro-3(RS)-[3'-(5'-fluoroindolyl)methyl]-5-o-fluorophenyl-2H-1,4-benzpdiazepin-2-one] returned an IC50 of 1.4 µM.

For `O=C1Nc2ccccc2C(c2ccccc2F)=NC1c1ccsc1` (racemic) [Example 20, 1,3-Dihydro-5-(2-fluorophenyl)-3(RS)-(3-thienyl)-2H-1,4-benzodiazepin-2-one], the IC50 on CCK receptor (pancreas) (IC50 ^125 I-CCK Pancreas) is more than 100 µM.

For the compound `O=C(NC1N=C(c2ccccc2)c2ccccc2NC1=O)c1ccc(Cl)cc1` (racemic) [Example 130, 1,3-Dihydro-3-(RS)-(4-chlorophenylcarbonyl)amino-5-phenyl-2H-1,4-benzodiazepin-2-one], the IC50 in assay [1] (setting [3]) was 8.2 µM; in assay [2] (IC50 ^125 I-CCK Brain), more than 40 µM.

Consider `O=C(NC1N=C(c2ccccc2)c2ccccc2NC1=O)c1ccc(Cl)c(Cl)c1` (racemic) [Example 141, 3-(RS)-(3,4-Dichlorobenzoylamino)-1,3-dihydro-5-phenyl-2H-1,4-benzodiazepin-2-one], for which the IC50 in assay [1] (setting [3]) is 25 µM; in assay [2] (IC50 ^125 I-CCK Brain) it was more than 40 µM.

`O=C(NC1N=C(c2ccccc2)c2ccccc2NC1=O)c1cccc(SC(F)(F)F)c1` (racemic) [Example 155, 1,3-Dihydro-5-phenyl-3(RS)-(3-trifluoromethylthiobenzoylamino)-2H-1,4-benzodiazepin-2-one]: the figures for the IC50 in assay [1] (setting [3]) and in assay [2] (IC50 ^125 I-CCK Brain) were 128 µM and more than 100 µM, respectively.

In the case of `CCOC(=O)CN1C(=O)C(NC(=O)c2ccc(Cl)cc2)N=C(c2ccccc2F)c2ccccc21` (racemic) [Example 129, 1-Ethoxycarbonylmethyl-1,3-dihydro-3(RS)-(4-chloro-phenylcarbonyl)amino-5-(2-fluorophenyl)-2H-1,4-benzodiazepin-2-one], the results for the IC50 in assay [1] (setting [3]) and in assay [2] (IC50 ^125 I-CCK Brain) were 0.69 µM and 1.9 µM, respectively.

For `O=C(Nc1ccc(Cl)cc1)NC1N=C(c2ccccc2F)c2ccccc2NC1=O` (racemic) [Example 182, 1,3-Dihydro-3(RS)-(4-chlorophenyl)aminocarbonylamino-5-(2-fluorophenyl)-2H-1,4-benzodiazepin-2-one], the IC50 in assay [1] (setting [3]) was found to be 0.26 µM; in assay [2] (IC50 ^125 I-CCK Brain) it was 0.3 µM.

In the case of `O=C(NC1N=C(c2ccccc2)c2ccccc2NC1=O)c1ccc2ccccc2c1` (racemic) [Example 160, 1,3-Dihydro-3(RS)-(2-naphthoylamino)-5-phenyl-2H-1,4-benzodiazepin-2-one], the results for the IC50 in assay [1] (setting [3]) and in assay [2] (IC50 ^125 I-CCK Brain) were 14 µM and 12 µM, respectively.

`O=C(NC1N=C(c2ccccc2)c2ccccc2NC1=O)c1c[nH]c2ccccc12` (racemic) [Example 109, 1,3-Dihydro-3-(RS)-(3-indolecarbonylamino)-5-phenyl-2H-1,4-benzodiazepin-2-one]: the results for the IC50 in assay [1] (setting [3]) and in assay [2] (IC50 ^125 I-CCK Brain) were 18 µM and 8.4 µM, respectively.

`CN1C(=O)[C@@H](NC(=O)c2ccccc2I)N=C(c2ccccc2)c2ccccc21` [Example 283, (S)-N-(2,3-Dihydro-1-methyl-2-oxo-5-phenyl-1H-1,4-benzodiazepin-3-yl)-2-iodobenzamide]: the IC50 in assay [1] (setting [4]) was 66 µM; in assay [2] (setting [5]), 71 µM.

In the case of `O=C(NC1N=C(c2ccccc2)c2ccccc2NC1=O)c1cc(Cl)cc(Cl)c1` (racemic) [Example 147, 3-(RS)-(3,5-Dichlorobenzoylamino)1,3-dihydro-5-phenyl-2H-1,4-benzodiazepin-2-one], the IC50 is 180 µM in assay [1] (setting [3]) and more than 100 µM in assay [2] (IC50 ^125 I-CCK Brain).

With `O=C(NC1N=C(c2ccccc2)c2ccccc2NC1=O)c1cccc2ccccc12` (racemic) [Example 166, 1,3-Dihydro-3(RS)-(1-naphthoylamino)-5-phenyl-2H-1,4-benzodiazepin-2-one], the IC50 worked out at 29 µM in assay [1] (setting [3]) and 12 µM in assay [2] (IC50 ^125 I-CCK Brain).

Take `O=C(NC1N=C(c2ccccc2)c2ccccc2NC1=O)c1ccc(F)cc1` (racemic) [Example 144, 1-3-Dihydro-3-(RS)-(4'-fluorobenzoylamino)-5-phenyl-2H-1,4-benzodiazeoin-2-one]: the figures for the IC50 in assay [1] (setting [3]) and in assay [2] (IC50 ^125 I-CCK Brain) were 9.4 µM and 43 µM, respectively.

Take `O=C(NC1N=C(c2ccccc2)c2ccccc2NC1=O)c1ccc(O)cc1` (racemic) [Example 148, 1-3-Dihydro-3-(RS)-(p-Hydroxybenzoylamino)-5-phenyl-2H-1,4-benzodiazepin-2-one]: the IC50 in assay [1] (setting [3]) was determined as 31 µM; in assay [2] (IC50 ^125 I-CCK Brain), 100 µM.

Consider `CN1C(=O)C(NC(=O)c2cc3ccccc3[nH]2)N=C(c2ccccc2F)c2ccccc21` (racemic) [Example 81a, 1,3-Dihydro-5-(2-fluorophenyl)-3(RS)-(2-indolecarbonyl-amino)-1-methyl-2H-1,4-benzodiazepin-2-one], for which the IC50 came out at 0.19 µM in assay [1] (setting [4]) and 0.3 µM in assay [2] (IC50 ^125 I-CCK Brain).

As to `CC(C)(C)OC(=O)N[C@@H](Cc1ccccc1)C(=O)NC1N=C(c2ccccc2)c2ccccc2NC1=O` (mixture of isomers) [Example 82, 3(RS)-(2(S)-tert-Butoxycarbonylamino-3-phenylpropanoyl-amino)-1,3-dihydro-5-phenyl-2H-1,4-benzodiazepin-2-one], the values for the IC50 in assay [1] (setting [4]) and in assay [2] (IC50 ^125 I-CCK Brain) were more than 100 µM and 12 µM, respectively.

In the case of `N[C@@H](Cc1ccccc1)C(=O)NC1N=C(c2ccccc2)c2ccccc2NC1=O` (single isomer, unassigned) [Example 186], the IC50 in assay [1] (setting [4]) and in assay [2] (setting [5]) was more than 100 µM throughout.

With `O=C(NC1N=C(c2ccccc2)c2ccccc2NC1=O)c1ccc(-c2ccccc2)cc1` (racemic) [Example 164, 1,3-Dihydro-5-phenyl-3(RS)-(4-phenylbenzoylamino)-2H-1,4-benzodiazepin-2-one], the 50% inhibitory concentration (IC50) in assay [1] (setting [3]) is more than 100 µM; in assay [2] (IC50 ^125 I-CCK Brain), 18 µM.

In the case of `CCCCCc1ccc(C(=O)NC2N=C(c3ccccc3)c3ccccc3NC2=O)cc1` (racemic) [Example 165, 1,3-Dihydro-3(RS)-(4-n-pentylbenzoylamino)-5-phenyl-2H-1,4-benzodiazepin-2-one], the IC50 in assay [1] (setting [3]) was more than 100 µM; in assay [2] (IC50 ^125 I-CCK Brain), 8 µM.

For the compound `CCOC(=O)CN1C(=O)C(NC(=O)c2ccccc2Cl)N=C(c2ccccc2F)c2ccccc21` (centres unmarked) [Example 188, 3-(2'-Chlorobenzoylamino)-1-ethoxycarbonylmethyl-5-(2'-fluorophenyl)-2H-1,4-benzodiazepine-2-one], the IC50 came to 1.3 µM in assay [1] (setting [3]) and 3.2 µM in assay [2] (IC50 ^125 I-CCK Brain).

These data come from patent US4820834A, “Benzodiazepine analogs” (priority 1987, dated 1989).
